A short description of data set [1]: Stability of the compounds (stated in words, no method given). The format is physicochemical. The conditions noted are these: qualitative statement; no conditions given.
The target of another data set is HPPK (Escherichia coli, UniProt P26281). As to the kind of experiment: Fluorometric titration binding study with HPPK. The conditions noted are these: room temperature; 100 mM Tris-HCl, pH 8.3; fluorescence titration, nonlinear least-squares analysis. The method, then: Binding studies were carried out at room temperature. Protein (HPPK) and ligand stock solutions were made in 100 mM Tris-HCl, pH 8.3, and their concentrations were determined spectrophotometrically using the following extinction coefficients: 21600 M^−1 cm^−1 at 280 nm for HPPK, 7000 M^−1 cm^−1 at 366 nm for the pteridone bisubstrate inhibitors such as compound 13, and 7124 M^−1 cm^−1 at 380 nm for the tetrahydropteridine bisubstrate inhibitors such as 28. A 3-mL dilute inhibitor solution in a fluorometric cuvette was titrated with the protein stock solution. Fluorescence was measured on a Horiba Jobin Yvon FluoroMax-4 fluorometer. The excitation wavelength and slit were 364-380 and 2-3 nm, respectively, and the emission wavelength and slit were 450-482 and 2-5 nm, respectively. […] For these HPPK preparations, a control experiment, in which a 3-mL buffer solution was titrated with the protein solution, was performed. The control data was subtracted from the titration data. The corrected titration data was then analyzed by nonlinear least-squares regression using the software Origin and the equation:
[formula] where Fobs is the observed fluorescence, εf and εb are the fluorescence coefficients of the ligand in the free and protein-bound states, respectively, Lt is the total concentration of the ligand, and Et is the total concentration of HPPK. […]

SMILES strings stand for the structures. pKd: −log10 of the molar value.

Chain of HPPK (P26281 whole entry): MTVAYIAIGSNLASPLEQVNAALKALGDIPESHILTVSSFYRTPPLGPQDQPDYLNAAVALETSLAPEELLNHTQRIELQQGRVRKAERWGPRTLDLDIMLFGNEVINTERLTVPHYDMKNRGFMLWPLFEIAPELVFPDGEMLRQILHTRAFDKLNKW

By pKd is commonly meant −log10 of the Kd, conventionally taken in molar units. In the case of `Nc1nc2ncc(CNCCN3CCC(SC[C@H]4O[C@@H](n5cnc6c(N)ncnc65)C(O)C4O)CC3)nc2c(=O)[nH]1` (stereo in doubt) [Compound 13, 2-Amino-6-[(2-{4-[5-(6-amino-purin-9-yl)-3,4-dihydroxy-tetrahydro-furan-2-ylmethylsulfanyl]-piperidin-1-yl}-ethylamino)-methyl]-3H-pteridin-4-one], in data set [1], the Stability of compound result was “stable”. Further, the pKd at HPPK is 6.23.
As to `CC1(C)Nc2nc(N)[nH]c(=O)c2N=C1C(=O)NCCN1CCC(SC[C@H]2O[C@@H](n3cnc4c(N)ncnc43)C(O)C2O)CC1` (stereo in doubt) [Compound 28, 2-Amino-7,7-dimethyl-4-oxo-3,4,7,8-tetrahydro-pteridine-6-carboxylic acid (2-{4-[5-(6-amino-purin-9-yl)-3,4-dihydroxy-tetrahydro-furan-2-ylmethylsulfanyl]-piperidin-1-yl}-ethyl)-amide], the Stability of compound entry in data set [1] was “stable”. Also, the pKd at HPPK is 6.48.
